Results as given in patent publication US9993462B2, “Hydantoin derivative-containing pharmaceutical composition” (Chugai Seiyaku Kabushiki Kaisha, priority 2014, dated 2018).

Assays:
ovariectomized rats = experiment: Bone mineral density after six weeks of repeated administration to ovariectomized rats; format: in vivo, rat; conditions: once a day for six weeks, hPTH(1-34) 0.9 nmol/kg subcutaneous
Protocol: Female Crl:CD(SD) rats obtained from Charles River Japan, Inc. were acclimated for one week or longer under standard laboratory conditions of 20° C. to 26° C. and 35% to 75% humidity, and then used in experiments. The rats had free access to tap water and a standard rodent diet (CE-2) (Clea Japan Inc.) containing 1.1% calcium, 1.0% phosphoric acid, and 250 IU/100 g vitamin D3.
Twelve-week old rats were subjected to removal of both ovaries by surgery (OVX) or to sham surgery (Sham). After the body weight was determined in the fourth week after surgery, the rats were divided into groups so that the average body weight of each group of six rats would be even. From the subsequent day after group division, each rat was subjected to repeated administration once a day for six weeks. The solvent for oral administration (vehicle) and the solvent for subcutaneous administration (PC buffer) were respectively administered orally and subcutaneously to rats of the Sham-Control group. Vehicle and PC buffer were orally and subcutaneously administered to rats of the OVX-Control group, respectively. To rats of OVX-Compound 7, the above-mentioned Compound 7 dissolved in the vehicle was orally administered at a dose of 30 mg/kg, and PC buffer was administered subcutaneously. To rats of the OVX-hPTH(1-34) group, the vehicle was orally administered, and hPTH(1-34) dissolved in PC buffer was subcutaneously administered at a dose of 0.9 nmol/kg.
The level of AUC (area under the curve for blood concentration vs. time) was the same as when 20 μg of Forteo®, a therapeutic agent clinically used for osteoporosis, is administered to humans when the administration dose for rats was set to 0.9 nmol/kg. The administration doses were 5 mL/kg for oral administration and 1 mL/kg for subcutaneous administration in all groups. The vehicle used was a composition prepared from 10% dimethyl sulfoxide (Wako Pure Chemical Industries, Ltd.), 10% Kolliphor EL (Sigma-Aldrich Japan), and 10% hydroxypropyl-β-cyclodextrin (Nihon Shokuhin Kako Co., Ltd), whose pH was adjusted to 10 using glycine (Wako Pure Chemical Industries, Ltd.) and sodium hydroxide (Wako Pure Chemical Industries, Ltd.). The PC buffer used was a composition prepared from 25 mmol/L phosphate-citrate buffer, 100 mmol/L NaCl, and 0.05% Tween80, adjusted to pH 5.0. […] The bone mineral densities of the lumbar spine and femur were determined using a dual X-ray bone mineral scanner (DCS-600EX, Aloka). The lumbar spine bone mineral density was determined by measuring the second to fourth lumbar vertebrae; and the femur bone mineral density was determined by vertically dividing the femur into ten parts, and measuring the three parts at the distal end of the knees. […]

[1] = tested on: rabbit articular chondrocytes; experiment: Suppression of terminal differentiation of rabbit articular chondrocytes (alkaline phosphatase and alizarin red staining); format: cell-based; conditions: BMP-2 100 ng/mL, Compound 7 10^−7 to 10^−5 mol/L, PTH(1-34) 10^−10 to 10^−7 mol/L
Protocol: NZW rabbits (4-week old, Oriental Yeast Co., Ltd.) were euthanized, and then the articular cartilage of the lower leg bone was collected, and transferred to a 50-mL test tube (Nippon Becton Dickinson Company). PBS (Nacalai Tesque, Inc.) containing 1% trypsin (Wako Pure Chemical Industries, Ltd.) was added to this, and the soft tissue was digested at 37° C. for one hour. This was followed by centrifugation at 1,200 rpm for five minutes, then supernatant was removed and PBS(−) was added to suspend the cartilage tissue. This was centrifuged at 1,200 rpm for five minutes, followed by removal of the supernatant, and washed three times by suspending in PBS(−). This was centrifuged at 1,200 rpm for five minutes, and then the cell pellet was digested by treatment with DMEM (Life Technologies Japan, Ltd.) containing 0.2% Type II collagenase (CLS-2, Worthington Biochemical Corp.) at 37° C. for three hours. Fetal bovine serum (Life Technologies Japan, Ltd.) was added at 10% v/v to stop the reaction, and this was vigorously pipetted using a 10-mL pipette (Nippon Becton Dickinson Company) to isolate the chondrocytes. This was centrifuged at 1,200 rpm for five minutes, followed by removal of the supernatant, and washed three times by suspending in 10% FCS-containing DMEM, and the chondrocytes were seeded at 1×10^4 cells/well on an I-type collagen-coated 96-well culture plate (AGC TECHNO GLASS CO., LTD.). Medium exchange was performed three times a week; and after the cells reached confluency, they were cultured in DMEM containing 100 μg/mL L-ascorbic acid phosphate magnesium salt n-hydrate (Wako Pure Chemical Industries, Ltd.), 10 mmol/L β-glycerophosphate pentahydrate (Wako Pure Chemical Industries, Ltd.) and 10% FCS. The following conditions were used to culture the cells, and alkaline phosphatase staining (cultured for 14 days) and alizarin red staining (cultured for 21 days) were performed to evaluate terminal differentiation of chondrocytes.
Alkaline phosphatase staining was performed by discarding the medium, then washing the chondrocytes once with 200 mmol/L Tris-HCl pH8.2 buffer, staining the cells according to the protocol supplied with the alkaline phosphatase staining kit (Vector Red Alkaline Phosphatase Substrate Kit I, Vector Laboratories, Inc.), and taking photographs with an inverted microscope (Nikon Corporation) (4× objective).
Alizarin red staining was performed by discarding the medium, then washing the chondrocytes twice with PBS, fixing the cells using 100% ethanol (Wako Pure Chemical Industries Ltd.) for 15 minutes, discarding the ethanol, and then staining with 1% alizarin red S (Wako Pure Chemical Industries Ltd.) for 15 minutes, followed by washing with distilled water; and photographs were taken with an inverted microscope.

[2] = tested on: human articular chondrocytes; experiment: Proteoglycan synthesis by human articular chondrocytes (35S-sulfate incorporation); format: cell-based; conditions: PTH(1-34) 10^−8 mol/L, cultured for 13 days
Protocol: After purchase of cryopreserved human articular chondrocytes (Lot 2867, Cell Applications Inc.), the cells were thawed in a 37° C. water bath, 15 mL of Basal Medium supplemented with 10% Growth Supplement (Growth Medium, Cell Applications Inc.) was placed in a T75 culture flask (CORNING, Corning Japan K. K.) to culture the cells, and exchanged the next day with 15 mL of Growth Medium; and the cells were cultured for three days. Growth Medium was then removed, and HBSS (Cell Applications Inc.) was used to wash the chondrocyte layer. With addition of 1 mL of trypsin/EDTA solution (Cell Applications Inc.), this was left to stand at room temperature for approximately five minutes, and chondrocytes were detached from the flask. With 10 mL of Neutralization solution (Cell Applications Inc.) added, Bulker-Turk hemocytometer was used to determine the cell count, and the cells were then transferred to a 15-mL test tube for centrifugation (1,200 rpm for five minutes, Tomy Seiko Co., Ltd.) to produce a chondrocyte pellet. The supernatant was discarded, and the cells were placed in a 1.2% sodium alginate solution (25 mmol/L HEPES/150 mmol/L sodium chloride solution, pH7.0) at 2×10^6 cells/mL. This was drawn into a 1-mL syringe (Terumo Corporation) equipped with a 22G injection needle, five drops were added to each well of a 24-well plate (Corning Japan K.K.) containing 2 mL of 102 mmol/L aqueous CaCl2 solution, and this was left to stand for five minutes to form beads. Subsequently, this was washed three times with a 150 mmol/L sodium chloride solution and incubated for one day in Growth Medium, and the medium was exchanged with Basal Medium supplemented with 1% Growth supplement (Cell Applications Inc.). In this procedure, the following factors were added to the medium, and the cells were cultured for 13 days with three times of medium exchange performed per week.
On day 12 of culturing, ^35S-labeled sulfuric acid (PerkinElmer Japan Co., Ltd.) was added at 370 kBq/well, and the medium was collected 24 hours later into a test tube and stored at 4° C. To the alginate gel, a 55 mmol/L sodium citrate solution (Nacalai Tesque, Inc.; 1 mL/well) was added, and this was incubated at 37° C. for ten minutes for solation. This was collected into a microtube (Eppendorf AG) and then centrifuged (1,200 rpm, five minutes) to produce a chondrocyte pellet. […] The glass filter was transferred to a liquid scintillation counter vial, 5 mL of scintillator (Hionic-Fluor, PerkinElmer Japan Co., Ltd.) was added and radioactivity was measured on a liquid scintillation counter (TRI-CARB, PerkinElmer Japan Co., Ltd.).
The remaining 0.1 mL of the digested solution was used for DNA quantification. […]

“hPTH(1-34): Human PTH(1-34) peptide purchased from Peptide Institute, Inc.; positive control [reference compound]” was tested, and the “percentage of increase in femur bone mineral density with respect to the OVX-Control group” value (ovariectomized rats; Compound 7 30 mg/kg oral) was 8%, the “percentage of increase in lumbar spine bone mineral density with respect to the OVX-Control group” value (ovariectomized rats) was 12% and the “alkaline phosphatase activity (alkaline phosphatase staining)” value ([1]; cultured for 14 days) was “suppressed alkaline phosphatase activity in a concentration-dependent manner”. For the same substance, the “alizarin red staining property (calcification)” value ([1]; cultured for 21 days) was “suppressed the alizarin staining property in a concentration-dependent manner” and the “radioactivity (proteoglycan synthesis, cpm/μg DNA) relative to the vehicle control” value [2] was 6 fold.
